Source: ChEMBL document CHEMBL1159093, “Discovery and optimization of RO-85, a novel drug-like, potent, and selective P2X3 receptor antagonist” (Bioorg Med Chem Lett, 2010)

How the values were obtained:
P2X purinoceptor 3 = target: T1, P2X purinoceptor 3 (Rattus norvegicus, UniProt P49654); test: Antagonist activity at rat P2X3 receptor expressed in CHO cells; type: functional, cell-based
T1 sequence (P49654 whole entry): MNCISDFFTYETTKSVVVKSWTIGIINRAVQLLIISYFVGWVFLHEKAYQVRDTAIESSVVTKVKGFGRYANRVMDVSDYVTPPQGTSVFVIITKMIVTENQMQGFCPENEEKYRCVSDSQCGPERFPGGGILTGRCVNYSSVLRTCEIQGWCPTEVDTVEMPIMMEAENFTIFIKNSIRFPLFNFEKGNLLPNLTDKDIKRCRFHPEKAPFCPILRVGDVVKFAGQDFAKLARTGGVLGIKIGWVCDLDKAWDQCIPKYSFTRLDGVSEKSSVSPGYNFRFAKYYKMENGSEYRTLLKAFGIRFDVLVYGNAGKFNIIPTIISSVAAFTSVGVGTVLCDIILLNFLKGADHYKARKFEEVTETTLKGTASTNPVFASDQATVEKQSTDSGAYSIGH

[1] = target: T2, P2X2/P2X3 heterotrimeric receptor (Homo sapiens, UniProt P56373+Q9UBL9); test: Antagonist activity at human P2X2/P2X3 receptor expressed in human 1321N1C cells; type: functional, cell-based
T2 sequence (Q9UBL9 whole entry): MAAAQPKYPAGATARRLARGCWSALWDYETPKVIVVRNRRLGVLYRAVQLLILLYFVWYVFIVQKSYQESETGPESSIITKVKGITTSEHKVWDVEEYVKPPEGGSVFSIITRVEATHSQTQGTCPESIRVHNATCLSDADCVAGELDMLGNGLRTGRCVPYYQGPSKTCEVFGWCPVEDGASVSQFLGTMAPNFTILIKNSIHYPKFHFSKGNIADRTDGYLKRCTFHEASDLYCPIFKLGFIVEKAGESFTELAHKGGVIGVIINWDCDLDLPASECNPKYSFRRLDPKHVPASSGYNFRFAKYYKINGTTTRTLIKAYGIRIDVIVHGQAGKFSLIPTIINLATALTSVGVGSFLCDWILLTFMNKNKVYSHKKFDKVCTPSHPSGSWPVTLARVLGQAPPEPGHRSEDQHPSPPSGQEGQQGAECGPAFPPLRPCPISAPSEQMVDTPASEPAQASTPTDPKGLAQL
T2 sequence (P56373 whole entry): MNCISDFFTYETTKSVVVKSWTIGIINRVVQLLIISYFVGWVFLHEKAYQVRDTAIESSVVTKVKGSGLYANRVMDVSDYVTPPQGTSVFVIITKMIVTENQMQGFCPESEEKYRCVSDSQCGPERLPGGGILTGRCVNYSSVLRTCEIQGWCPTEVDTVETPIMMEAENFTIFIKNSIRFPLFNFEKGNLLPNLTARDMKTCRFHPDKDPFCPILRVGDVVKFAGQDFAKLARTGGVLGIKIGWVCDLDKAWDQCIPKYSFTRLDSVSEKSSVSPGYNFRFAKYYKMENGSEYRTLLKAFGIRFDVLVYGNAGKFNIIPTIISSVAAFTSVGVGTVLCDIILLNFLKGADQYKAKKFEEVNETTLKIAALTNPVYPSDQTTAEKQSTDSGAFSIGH

P2X purinoceptor 4 = P2X purinoceptor 4 (Homo sapiens, UniProt Q99571); test: Antagonist activity at P2X4 receptor; type: functional
P2X purinoceptor 5 = P2X purinoceptor 5 (Homo sapiens, UniProt Q93086); test: Antagonist activity at P2X5 receptor; type: functional
Cytochrome P450 3A4 = Cytochrome P450 3A4 (Homo sapiens, UniProt P08684); test: Inhibition of CYP3A4; type: ADME
P2X purinoceptor 1 = P2X purinoceptor 1 (Homo sapiens, UniProt P51575); test: Antagonist activity at P2X1 receptor; type: functional
P2X purinoceptor 7 = P2X purinoceptor 7 (Homo sapiens, UniProt Q99572); test: Antagonist activity at P2X7 receptor; type: functional
P2X purinoceptor 6 = P2X purinoceptor 6 (Homo sapiens, UniProt O15547); test: Antagonist activity at P2X6 receptor; type: functional
[2] = Protein binding in rat plasma; type: ADME, cell-free; conditions: read-out: PPB (converted)
Cytochrome P450 2D6 = Cytochrome P450 2D6 (Homo sapiens, UniProt P10635); test: Inhibition of CYP2D6; type: ADME
P2X purinoceptor 2 = P2X purinoceptor 2 (Homo sapiens, UniProt Q9UBL9); test: Antagonist activity at P2X2 receptor; type: functional

Chain of P2X purinoceptor 5 (Q93086 whole entry): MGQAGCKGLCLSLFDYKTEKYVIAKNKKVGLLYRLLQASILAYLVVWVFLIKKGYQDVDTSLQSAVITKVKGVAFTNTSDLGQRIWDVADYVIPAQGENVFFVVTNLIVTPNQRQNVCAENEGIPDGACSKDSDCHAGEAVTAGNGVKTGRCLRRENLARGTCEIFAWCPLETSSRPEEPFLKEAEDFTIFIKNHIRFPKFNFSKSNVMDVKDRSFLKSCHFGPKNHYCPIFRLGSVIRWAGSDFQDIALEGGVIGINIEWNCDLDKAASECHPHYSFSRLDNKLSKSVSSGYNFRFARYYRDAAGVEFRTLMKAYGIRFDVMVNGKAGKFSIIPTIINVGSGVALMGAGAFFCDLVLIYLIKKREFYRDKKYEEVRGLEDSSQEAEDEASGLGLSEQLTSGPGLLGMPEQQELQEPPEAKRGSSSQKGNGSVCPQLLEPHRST
Chain of P2X purinoceptor 7 (Q99572 whole entry): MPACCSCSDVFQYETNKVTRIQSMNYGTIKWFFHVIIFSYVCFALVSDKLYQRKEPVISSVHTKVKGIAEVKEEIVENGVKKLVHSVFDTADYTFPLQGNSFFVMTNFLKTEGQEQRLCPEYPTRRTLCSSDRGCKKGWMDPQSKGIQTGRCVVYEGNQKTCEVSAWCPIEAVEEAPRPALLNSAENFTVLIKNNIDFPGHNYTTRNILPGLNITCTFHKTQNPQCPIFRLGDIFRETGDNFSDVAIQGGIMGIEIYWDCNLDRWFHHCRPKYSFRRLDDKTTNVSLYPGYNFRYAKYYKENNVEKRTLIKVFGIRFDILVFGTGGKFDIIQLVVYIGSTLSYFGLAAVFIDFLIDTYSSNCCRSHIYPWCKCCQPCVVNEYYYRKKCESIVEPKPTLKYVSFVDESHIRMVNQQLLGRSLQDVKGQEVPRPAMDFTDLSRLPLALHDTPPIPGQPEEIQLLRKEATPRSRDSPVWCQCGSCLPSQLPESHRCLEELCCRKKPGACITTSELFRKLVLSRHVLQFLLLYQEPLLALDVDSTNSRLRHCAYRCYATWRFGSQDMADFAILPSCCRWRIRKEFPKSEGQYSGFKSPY
Chain of P2X purinoceptor 4 (Q99571 whole entry): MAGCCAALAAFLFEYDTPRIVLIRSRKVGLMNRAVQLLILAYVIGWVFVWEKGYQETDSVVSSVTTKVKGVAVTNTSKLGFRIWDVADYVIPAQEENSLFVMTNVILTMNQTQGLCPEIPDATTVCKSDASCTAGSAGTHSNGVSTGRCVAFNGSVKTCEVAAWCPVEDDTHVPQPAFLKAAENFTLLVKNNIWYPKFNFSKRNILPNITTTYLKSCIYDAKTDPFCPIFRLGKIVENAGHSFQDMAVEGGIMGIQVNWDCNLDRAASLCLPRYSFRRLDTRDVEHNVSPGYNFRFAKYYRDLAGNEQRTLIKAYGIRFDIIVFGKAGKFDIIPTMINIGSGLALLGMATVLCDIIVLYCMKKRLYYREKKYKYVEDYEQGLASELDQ
Chain of P2X purinoceptor 1 (P51575 whole entry): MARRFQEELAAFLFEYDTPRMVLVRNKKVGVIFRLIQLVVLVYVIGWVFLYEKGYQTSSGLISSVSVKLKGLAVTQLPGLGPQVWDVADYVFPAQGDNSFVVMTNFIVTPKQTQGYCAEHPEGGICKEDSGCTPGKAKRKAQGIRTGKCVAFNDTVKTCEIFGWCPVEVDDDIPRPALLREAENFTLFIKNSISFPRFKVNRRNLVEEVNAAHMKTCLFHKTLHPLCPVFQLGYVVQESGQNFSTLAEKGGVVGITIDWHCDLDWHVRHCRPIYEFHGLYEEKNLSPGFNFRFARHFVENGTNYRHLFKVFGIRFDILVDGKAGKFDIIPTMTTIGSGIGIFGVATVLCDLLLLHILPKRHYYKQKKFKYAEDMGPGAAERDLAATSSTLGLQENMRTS
Chain of Cytochrome P450 3A4 (P08684 whole entry): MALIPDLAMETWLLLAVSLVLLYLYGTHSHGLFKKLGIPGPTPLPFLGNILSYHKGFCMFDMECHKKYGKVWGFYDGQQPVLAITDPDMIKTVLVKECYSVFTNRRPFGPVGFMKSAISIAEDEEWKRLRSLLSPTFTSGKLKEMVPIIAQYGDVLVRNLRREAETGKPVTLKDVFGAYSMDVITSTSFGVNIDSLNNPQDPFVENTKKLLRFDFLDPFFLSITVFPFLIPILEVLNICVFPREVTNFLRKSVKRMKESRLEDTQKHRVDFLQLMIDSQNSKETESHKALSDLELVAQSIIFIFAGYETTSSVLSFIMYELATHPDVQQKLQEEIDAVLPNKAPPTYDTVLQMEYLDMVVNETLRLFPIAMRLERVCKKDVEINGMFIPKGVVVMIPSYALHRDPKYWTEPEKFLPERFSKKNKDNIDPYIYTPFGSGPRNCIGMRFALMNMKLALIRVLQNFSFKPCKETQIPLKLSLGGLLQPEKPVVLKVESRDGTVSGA
Chain of Cytochrome P450 2D6 (P10635 whole entry): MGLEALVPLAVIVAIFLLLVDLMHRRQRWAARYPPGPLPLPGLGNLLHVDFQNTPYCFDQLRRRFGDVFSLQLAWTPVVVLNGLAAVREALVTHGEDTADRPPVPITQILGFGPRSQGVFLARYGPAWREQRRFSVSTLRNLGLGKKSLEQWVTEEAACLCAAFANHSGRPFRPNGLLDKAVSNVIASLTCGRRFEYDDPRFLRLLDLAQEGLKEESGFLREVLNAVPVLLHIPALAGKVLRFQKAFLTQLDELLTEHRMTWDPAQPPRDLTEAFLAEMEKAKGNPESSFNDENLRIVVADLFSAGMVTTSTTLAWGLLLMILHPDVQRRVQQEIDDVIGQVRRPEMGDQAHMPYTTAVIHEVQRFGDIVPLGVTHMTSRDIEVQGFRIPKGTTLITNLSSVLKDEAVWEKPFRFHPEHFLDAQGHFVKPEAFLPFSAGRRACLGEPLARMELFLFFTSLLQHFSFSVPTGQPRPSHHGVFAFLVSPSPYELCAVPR
Chain of P2X purinoceptor 6 (O15547 whole entry): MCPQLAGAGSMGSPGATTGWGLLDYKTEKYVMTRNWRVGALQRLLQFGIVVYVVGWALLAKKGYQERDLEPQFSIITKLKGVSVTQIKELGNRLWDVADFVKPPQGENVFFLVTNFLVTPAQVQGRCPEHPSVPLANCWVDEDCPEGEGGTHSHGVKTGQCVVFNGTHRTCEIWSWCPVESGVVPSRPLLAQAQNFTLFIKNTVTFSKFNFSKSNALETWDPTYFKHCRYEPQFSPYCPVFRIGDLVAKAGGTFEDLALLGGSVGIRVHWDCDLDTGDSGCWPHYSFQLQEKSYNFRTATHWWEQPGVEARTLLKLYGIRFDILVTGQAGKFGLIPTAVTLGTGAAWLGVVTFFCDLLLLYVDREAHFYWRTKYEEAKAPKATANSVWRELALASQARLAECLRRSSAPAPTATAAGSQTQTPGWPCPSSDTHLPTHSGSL

Row | IC50 (P2X purinoceptor 3) [µM] | IC50 [1] [µM] | Compound | other results
1 | 0.1 | – | CC(=O)N1CCN(CC(C)NC(=O)c2cc3c(-c4ccccc4)nn(C)c3s2)CC1 (stereo unspecified) | –
2 | 5.01 | > 10 | CC(CN1CCN(c2ncccn2)CC1)NC(=O)c1nc(-c2ccccc2)cc(-c2ccccc2)n1 (stereo unspecified) | –
3 | > 10 | > 10 | CCCc1nc(-c2ccc(F)cc2)oc1C(=O)N[C@H](C)CN1CCN(C(=O)C2CC2)CC1 | –
4 | 0.0398 | – | CC(=O)N1CCN(CC(C)NC(=O)c2cc3c(-c4ccc(C)cc4)nn(C)c3s2)CC1 (stereo unspecified) | –
5 | 0.2 | > 10 | CC(CN1CCN(c2ncccn2)CC1)NC(=O)c1cc2c(-c3ccccc3)nn(C)c2s1 (stereo unspecified) | –
6 | 3.98 | > 10 | CC(CN1CCN(c2ncccn2)CC1)NC(=O)c1nc(-c2ccccc2)oc1-c1ccccc1 (stereo unspecified) | –
7 | 0.398 | > 10 | CCCc1nc(-c2ccc(F)cc2)oc1C(=O)N[C@H](C)CN1CCN(C(C)=O)CC1 | –
8 | > 10 | > 10 | CCCc1nc(-c2ccc(F)cc2)oc1C(=O)N[C@H](C)CN1CCN(c2ccncc2)CC1 | –
9 | > 10 | > 10 | CCCc1nc(-c2ccc(F)cc2)oc1C(=O)N[C@H](C)CN1CCN(C(=O)OCC)CC1 | –
10 | > 10 | – | CCCc1nc(-c2ccc(F)cc2)oc1COC(C)CN1CCN(c2ncccn2)CC1 (stereo unspecified) | –
11 | 2 | – | Cc1ccccc1-c1nn(C)c2sc(C(=O)NC(C)CN3CCN(c4ncccn4)CC3)cc12 (stereo unspecified) | –
12 | 10 | – | Cc1nn(-c2ccccc2)c2sc(C(=O)NC(C)CN3CCN(c4ncccn4)CC3)cc12 (stereo unspecified) | –
13 | > 10 | – | CCCc1nc(-c2ccc(F)cc2)oc1CNC(C)CN1CCN(c2ncccn2)CC1 (stereo unspecified) | –
14 | > 10 | – | CC(CN1CCN(c2ncccn2)CC1)NC(=O)c1cc2c(-c3ccccc3)nn(C)c2o1 (stereo unspecified) | –
15 | > 10 | – | CCCc1nc(-c2ccc(F)cc2)oc1C(=O)NCCN1CCN(c2ncccn2)CC1 | –
16 | > 10 | – | CC(CN1CCN(c2ncccn2)CC1)NC(=O)c1cc2c(-c3ccccc3)nn(-c3ccccc3)c2s1 (stereo unspecified) | –
17 | 1 | > 10 | CC(CN1CCN(c2ncccn2)CC1)NC(=O)c1cn(-c2ccccc2)nc1-c1ccccc1 (stereo unspecified) | –
18 | 1.26 | > 10 | CCCc1nc(-c2ccc(F)cc2)oc1C(=O)N[C@H](C)CN1CCN(c2ccncn2)CC1 | –
19 | > 10 | > 10 | CC(CN1CCN(c2ncccn2)CC1)NC(=O)c1sc(-c2ccccc2)nc1-c1ccccc1 (stereo unspecified) | –
20 | 0.501 | – | CCn1nc(-c2ccccc2)c2cc(C(=O)NC(C)CN3CCN(c4ncccn4)CC3)sc21 (stereo unspecified) | –
21 | 0.501 | > 10 | CCCc1cc(C(=O)NC(C)CN2CCN(c3ncccn3)CC2)cc(-c2ccc(F)cc2)c1 (stereo unspecified) | –
22 | > 10 | – | CC(CN1CCN(c2ncccn2)CC1)N1Cc2c(c(-c3ccccc3)nn2-c2ccc(F)cc2)C1=O (stereo unspecified) | –
23 | 2 | > 10 | Cc1c(C(=O)NC(C)CN2CCN(c3ncccn3)CC2)cc(-c2ccccc2)n1-c1ccccc1 (stereo unspecified) | –
24 | 2.51 | – | CCCc1nc(-c2ccc(F)cc2)oc1C(=O)NC(C)CN1CCCN(c2ncccn2)CC1 (stereo unspecified) | –
25 | 0.1 | > 10 | CCCc1nc(-c2ccc(F)cc2)oc1C(=O)NC(C)CN1CCN(C(C)=S)CC1 (racemic) | –
26 | 1.26 | > 10 | CC(CN1CCN(c2ncccn2)CC1)NC(=O)c1oc(-c2ccccc2)nc1-c1ccccc1 (stereo unspecified) | –

Row | IC50 (P2X purinoceptor 3) [µM] | IC50 [1] [µM] | Compound | other results
27 | 0.0631 | – | CC(CN1CCN(c2ncccn2)CC1)NC(=O)c1cc2c(-c3ccccc3F)nn(C)c2s1 (stereo unspecified) | –
28 | 0.0501 | > 10 | CCCc1nc(-c2ccc(F)cc2)oc1C(=O)N[C@H](C)CN1CCN(c2ncccn2)CC1 | –
29 | 2 | > 10 | CCCc1nc(-c2ccc(F)cc2)oc1C(=O)N[C@@H](C)CN1CCN(c2ncccn2)CC1 | –
30 | 5.01 | > 10 | Cc1nc(-c2ccccc2)oc1C(=O)NC(C)CN1CCN(c2ncccn2)CC1 (stereo unspecified) | –
31 | 0.0398 | – | CC(=O)N1CCN(CC(C)NC(=O)c2cc3c(-c4ccccc4F)nn(C)c3s2)CC1 (stereo unspecified) | –
32 | 0.126 | > 10 | CC(CN1CCN(c2ncccn2)CC1)NC(=O)c1cccc(-c2ccc(F)cc2)c1 (stereo unspecified) | –
33 | > 10 | > 10 | CCCc1nc(-c2ccc(F)cc2)oc1C(=O)NC(C)CN1CCN(c2ccccn2)CC1 (racemic) | –
34 | 1 | > 10 | CC(CN1CCN(c2ncccn2)CC1)NC(=O)c1cc(-c2ccccc2)nn1-c1ccccc1 (stereo unspecified) | –
35 | > 10 | – | CCCc1nc(-c2ccc(F)cc2)oc1C(=O)NC(C)(C)CN1CCN(c2ncccn2)CC1 | –
36 | 1.26 | > 10 | CC(CN1CCN(c2ncccn2)CC1)NC(=O)c1cc(-c2ccccc2)nc(-c2ccccc2)c1 (stereo unspecified) | –
37 | 2 | > 10 | CC(CN1CCN(c2ncccn2)CC1)NC(=O)c1cc(-c2ccccc2)oc1-c1ccccc1 (stereo unspecified) | –
38 | 0.251 | > 10 | CCCc1nc(-c2ccccc2)oc1C(=O)NC(C)CN1CCN(c2ncccn2)CC1 (stereo unspecified) | IC50 (P2X purinoceptor 4): > 10 µM; IC50 (P2X purinoceptor 5): > 10 µM; IC50 (Cytochrome P450 3A4): < 10 µM; IC50 (P2X purinoceptor 1): > 10 µM; IC50 (P2X purinoceptor 7): > 10 µM; IC50 (P2X purinoceptor 6): > 10 µM; fraction unbound [2]: < 0.01; IC50 (Cytochrome P450 2D6): < 10 µM; IC50 (P2X purinoceptor 2): > 10 µM
39 | > 10 | > 10 | CCCc1nc(-c2ccc(F)cc2)oc1C(=O)N[C@H](C)CN1CCN(S(C)(=O)=O)CC1 | –
40 | 2.51 | > 10 | CCCc1nc(-c2ccc(F)cc2)oc1C(=O)N[C@H](C)CN1CCN(C(=O)c2ccco2)CC1 | –
41 | 0.631 | > 10 | CC(CN1CCN(c2ncccn2)CC1)NC(=O)c1oc(-c2ccccc2)cc1-c1ccccc1 (stereo unspecified) | –
42 | > 10 | > 10 | Cc1c(C(=O)NC(C)CN2CCN(c3ncccn3)CC2)c(-c2ccccc2)nn1-c1ccccc1 (stereo unspecified) | –
43 | 0.501 | > 10 | CCCc1nc(-c2ccc(F)cc2)oc1C(=O)N[C@H](C)CN1CCN(c2cnccn2)CC1 | –
44 | 0.501 | > 10 | CC(CN1CCN(c2ncccn2)CC1)NC(=O)c1cc(Br)cc(-c2ccc(F)cc2)c1 (stereo unspecified) | –
45 | > 10 | – | CCCc1nc(-c2ccc(F)cc2)oc1C(=O)NC(CC)CN1CCN(c2ncccn2)CC1 (stereo unspecified) | –
46 | 0.631 | > 10 | CCCc1nc(-c2ccc(F)cc2)oc1C(=O)NC(C)CN1CCN(c2nccs2)CC1 (racemic) | –
47 | > 10 | > 10 | CCCc1nc(-c2ccc(F)cc2)oc1C(=O)N[C@H](C)CN1CCN(C(=O)NC)CC1 | –
48 | 1.26 | > 10 | CC(CN1CCN(c2ncccn2)CC1)NC(=O)c1cc(-c2ccccc2)n(-c2ccccc2)n1 (stereo unspecified) | –
49 | 1.58 | > 10 | CCCc1nc(-c2ccc(F)cc2)oc1C(=O)N[C@H](C)CN1CCN(c2ccccn2)CC1 | –
50 | 1 | > 10 | CCCc1nc(-c2ccc(F)cc2)oc1C(=O)N[C@H](C)CN1CCN(C(N)=O)CC1 | –
51 | > 10 | – | CCCc1nc(-c2ccc(F)cc2)oc1C(=O)N(C)CCN1CCN(c2ncccn2)CC1 | –
52 | 0.398 | > 10 | CC(CN1CCN(c2ncccn2)CC1)NC(=O)c1cc(-c2ccc(F)cc2)cc(-c2ccc(F)cc2)c1 (stereo unspecified) | –
